The subject of one data set is rotarod failure (Rot.). The data set can be described thus: Rotarod failure (for therapeutic index). The data set is classed as in vivo. The settings on record: therapeutic index: ED50 for rotarod failure divided by ED50 for MES-induced convulsions. On the procedure: (§1) Effect of MRZ 2/705 on convulsions induced by maximal electroshock (MES). […] The therapeutic index (TI) was also calculated as the ED50 for inhibition of traction reflex (Tract.) impairment or rotarod failure (Rot.) divided by the ED50 for MES-induced seizure-induced convulsions.

The nature of data set [1]: Adverse effects in kindled rats (sedation, ataxia, rotarod test). The data set is classed as in vivo, Female Wistar rats. Here is the method:
The substance MRZ 2/705 was dissolved in distilled water and administered i.p. Thereby applicated volume was 3 ml/kg body weight. dosages used in the experiments were 5, 10, and 20 mg/kg.
Animals were allowed to adapt to the laboratory environment, then body temperature was measured and animals were put into open cages for constant observation. 15 and 30 minutes following drug or vehicle administration behavioral alterations and body temperature were determined. Adverse effects were scored during observation in open cages and in an open field. In addition, rats were subjected to the rotarod test (polypropylene, foam-coated rod, 5cm in diameter, 8rpm). Animals were considered to have failed this test, when they fell from the rod in each of three consecutive 1-min. attempts.

For data set [2], the system named is traction reflex (Tract.) impairment. The data set can be described thus: Traction reflex impairment (for therapeutic index). In kind it is in vivo. As to conditions: therapeutic index: ED50 for traction reflex impairment divided by ED50 for MES-induced convulsions. On the procedure: as §1
Data set [3] deals with cultured cortical neurones. In words: Glutamate toxicity in cultured cortical neurones. In kind it is cell-based. As to conditions: Cortical neurone, read-out: Glut Tox IC50. Here is the method:
(§2) Effect of MRZ 2/705 on [^3H]-(+)-MK-801 binding, NMDA-induced currents in patch clamp experiments, and glutamate toxicity in cultured cortical neurones. […] IC50s (±SEM) in patch clamp and glutamate toxicity experiments were determined from data from at least 3 concentrations producing between 15 and 85% inhibition and at least 5 cells/well per concentration.

Another data set has as its system NMDA-induced currents. In words: NMDA-induced currents in patch clamp experiments. The data set is classed as cell-based. As to conditions: at least 3 concentrations, at least 5 cells per concentration. Here is the method: as §2
For data set [4], the system named is convulsions induced by maximal electroshock (MES). The data set can be described thus: Convulsions induced by maximal electroshock (MES). The data set is classed as in vivo. The settings on record: ip; 95% confidence limits in the next column. Here is the method: as §1
The next data set concerns the target [^3H]-(+)-MK-801 binding. In words: [3H]-(+)-MK-801 binding. The settings on record: read-out: MK-801 Ki; means of 3-5 experiments; Cheng-Prusoff, Kd for MK-801 of […]. On the procedure:
as §2

The subject of another data set is amygdala kindled rats. The data set can be described thus: Amygdala kindling model in fully kindled rats. In kind it is in vivo, Female Wistar rats. Here is the method:
The substance MRZ 2/705 was tested in the amygdala kindling model in rats. In this model chronically implanted animals with stimulation and recording electrodes in the amygdala were rendered more susceptible to seizures by repeated initially subconvulsive electrical stimulation (Goddard et al., 1969, Sato el. al, 1990). Once enhanced sensitivity, characterized by generalized motor seizures, has developed, the animal is said to be fully kindled. For substance screening procedures we determine the individual threshold current that induces afterdischarges at the stimulation site.
Female Wistar rats were purchased at a body weight of 200-220g (Harlan Windelmann Versuchstierzucht, Borchen, Germany) and were then kept under controlled environmental conditions (24-25°C, 50-60% humidity, 12h light / dark cycle) with free access to standard laboratory chow (Altromin 1324 standard diet) and tap water. All experiments were performed within the same day time in the morning to minimize possible effects of circadian variation. […] These animals were previously kindled and used to test other compounds. The period between the previous and current studies was long enough (at least one month) so that it was ample time for a complete washout from the previously tested drug.
For implantation of kindling electrodes, rats were anaesthetized with chloral hydrate (360 mg/kg, i/p.), the skull surface was exposed, and a bipolar electrode was implanted into the right hemisphere aimed at the basolateral amygdala using the following sterotaxic coordinates according to the atlas of Paximos and Watson (1986): 2.2 mm caudal, 4.8 mm lateral, 8.5 mm ventral (all respective to bregma). The electrodes consisted of two twisted Teflon-coated stainless steel wires (250 µm diameter) separated by 0.5 mm at the tip. A screw, which served as grounding electrode, was positioned over the left parietal cortex. Bipolar and ground electrodes were connected to plugs, and the electrode assembly and anchor screws were held in place with dental carylic cement applied to the exposed skull surface. After surgery, the rats were treated with antibiotics for 1 week to prevent infection.
Following a post-operative recovery period of two weeks, constant current stimulations (500µA, 1 msec, monophasic square-wave pulses, 50 Hz for 1 s) were delivered to the amygdala once daily (five times per week) until at least 10 sequential fully kindled stage-5 seizures were elicited. Seizure severity (SS) was scored according to Racine (1972): 1 immobility, eye closure, ear twitching, twitching of vibrissae, sniffing, facial clonus; 2 head nodding associated with more severe facial clonus; 3 clonus of one forelimb; 3.5 bilateral clonus without rearing; 4 bilateral clonus accompanied by rearing; 4.5 generalized clonic seizures without rearing and falling (e.g. because of direct loss of balance); 5 rearing and falling accompanied by generalized clonic seizures. In these fully kindled rats afterdischarge threshold (ADT) was determined by administering a series of stimulations at intervals of 1 min. increasing in steps of about 20% of the previously applied current. The afterdischarge threshold was defined as the lowest current intensity producing afterdischarge with a duration of at least 5 s.
In all experiments seizure duration and afterdischarge duration were recorded in addition to seizure severity and afterdischarge threshold. Seizure duration 1 (SD1) was the time period of limbic and/or motor seizures. Limbic seizure activity which sometimes occurred after termination of secondarily generalized seizures was not included in seizure duration. Seizure duration 2 (SD2) was the time period from stimulation until the end of postictal depression phase.
Afterdischarge duration 1 (ADD1) was defined as the period of high amplitude spiking (at least 1 Hz frequency and twice the prestimulation amplitude) in the electroencephalogram (EEG) of the BLA electrode, including the time of stimulation. […]

The mark [5] stands for this setting: 20 mg/kg i.p., in a significant manner.

As for `CC1(C)CC(C)(C)CC(C)(N2CCCC2)C1.Cl` [MRZ 2/705, N-(1,3,3,5,5-Pentamethylcyclohexyl) pyrrolidine hydrochloride], in the data set with rotarod failure (Rot.), the “TI Rot.” value is recorded as 5.4. The rotarod test result in data set [1] (5, 10, 20 mg/kg i.p., 8 rpm, three consecutive 1-min attempts) is “no failure to pass the rotarod test was observed”. Further, the ataxia result in [1] (10 and 20 mg/kg i.p.) is given as “Slight ataxia”. In [1] (all three dosages (5, 10, 20 mg/kg i.p.)), the sedation entry was “minor signs of sedation”. In addition, the “TI Tract” value in data set [2] is recorded as 3.9. Further, the concentration for half-maximal inhibition (IC50) was found to be 12.3 µM in [3] and 25.4 µM with NMDA-induced currents. The ED50 in [4] amounted to 9.55 mg/kg. In the data set “Minimal lethality i.p.”, the “Min I.ct-hality” value is over 50 mg/kg. Further, in data set [^3H]-(+)-MK-801 binding, the Ki came to 7.14 µM. The “average increase in afterdischarge threshold above control threshold” value was determined as 36% in the data set on amygdala kindled rats (5 mg/kg i.p.); 50% in the data set on amygdala kindled rats (10 mg/kg i.p., significant); 95% in the data set with amygdala kindled rats (20 mg/kg i.p., significant). The duration of afterdischarges entry in the data set with amygdala kindled rats (setting [5]) was “reduced”. In addition, the “duration of motor seizures” value in the data set with amygdala kindled rats (setting [5]) is listed as “reduced”. Besides, the seizure severity result in the data set with amygdala kindled rats (setting [5]) is “reduced”. Besides, the “seizure parameters (seizure severity, duration of motor seizures, duration of afterdischarges)” value in the data set with amygdala kindled rats (lower dosages (5 and 10 mg/kg i.p.)) was “remained unchanged or were only influenced slightly”.

The values above are taken from patent publication EP1228052B1, “1-CYCLIC AMINO-ALKYLCYCLOHEXANE COMPOUNDS, PHARMACEUTICAL COMPOSITIONS THEREOF, AND THEIR USE AS ANTICONVULSANTS” (Merz Pharma GmbH & Co. KGaA, priority 1999, dated 2001).
